This experiment has as its target HIF PHD2 (Homo sapiens, UniProt Q9GZT9). Briefly: PHD2 inhibition assay (TR-FRET, VCB-Eu detection of hydroxylated P564-HIF1α peptide). In kind it is biochemical. Particulars: 2 nM PHD2, 100 nM P564-HIF1α peptide, 0.25 μM 2-oxoglutarate, 100 μM FeCl2, pH 6, TR-FRET. How it is done: Inhibition of HIF PHD2 activity was quantified utilizing the TR-FRET technology. HIF PHD2 catalyzes a hydroxyl modification on the proline residue of the P564-HIF1α peptide substrate (Biotin-DLEMLAPYIPMDDDFQL (SEQ ID NO: 7)) resulting in recognition and binding of the europylated Von Hippel-Lindau protein (pVHL), elongin B and elongin C heterotrimeric (VCB-Eu) complex.
The PHD2 inhibition assay was executed by addition of freshly dissolved FeCl2 to 178.57 μM (100 μM final concentration) in PHD2 Reaction Buffer containing 30 mM MES, pH 6, 10 mM NaCl, 0.25% Brij-35, 0.01% BSA, and 1% DMSO. 28 μL of the iron solution and 2 μL of inhibitor compounds serially diluted in 100% DMSO (5% DMSO final) were added to black polypropylene 96-well microtiter plates. To that, 10 μL of 10 nM PHD2 (2 nM final) was added to all wells of the plate except for the 8 wells of column 12 (LO control), and allowed to incubate at room temperature on the shaker for one hour. Column 6 was the HI control containing PHD2 enzyme and 5% DMSO vehicle, but no inhibitor compound. To initiate the PHD2 enzymatic reaction, 10 μL of a solution containing 500 nM P564-HIF1α peptide (100 nM final), 10 mM ascorbic acid (2 mM final), and 1.25 μM 2-oxoglutarate (α-ketoglutarate; 0.25 μM final) in PHD2 Reaction Buffer was added to all wells of the plate and allowed to incubate on the shaker at room temperature for one hour.
The reaction was terminated by addition of 25 μL TR-FRET Buffer (50 mM TRIS-HCl, pH 9, 100 mM NaCl, 0.05% BSA, and 0.5% Tween-20) containing 150 mM succinate (product inhibitor; 50 mM final), 75 nM streptavidin-APC (25 nM final), and 7.5 nM VCB-Eu (2.5 nM final). The TR-FRET detection reagents were placed on a shaker for 1 hour to reach binding equilibrium before reading on the Discovery platform (PerkinElmer). Europium is excited at 315 nm and phosphoresces at 615 nm with a large Stoke's shift. APC, in turn, emits at 655 nm upon excitation at 615 nm. The TR-FRET signal is measured as the ratio of the APC 655 nm signal divided by the internal europium reference 615 nm emission signal.
The POC (percentage of control) was determined by comparing the signal from hydroxylated peptide substrate in the enzyme reaction containing inhibitor compound with that from PHD2 enzyme with DMSO vehicle alone (HI control), and no enzyme (LO control). POC was calculated using the formula: % control (POC)=(cpd−average LO)/(average HI−average LO)*100. Data (consisting of POC and inhibitor concentration in μM) was fitted to a 4-parameter equation (y=A+((B−A)/(1+((x/C)^D))), where A is the minimum y (POC) value, B is the maximum y (POC), C is the x (cpd concentration) at the point of inflection and D is the slope factor) using a Levenburg-Marquardt non-linear regression algorithm.

18 compounds from patent US7569726B2, “Indanone derivatives that inhibit prolyl hydroxylase” (Amgen Inc., priority 2007, dated 2009) can be followed below.

The IC50 is the concentration that inhibits the measured activity by half. A higher IC50 goes with weaker potency.

Chain of HIF PHD2 (Q9GZT9 whole entry): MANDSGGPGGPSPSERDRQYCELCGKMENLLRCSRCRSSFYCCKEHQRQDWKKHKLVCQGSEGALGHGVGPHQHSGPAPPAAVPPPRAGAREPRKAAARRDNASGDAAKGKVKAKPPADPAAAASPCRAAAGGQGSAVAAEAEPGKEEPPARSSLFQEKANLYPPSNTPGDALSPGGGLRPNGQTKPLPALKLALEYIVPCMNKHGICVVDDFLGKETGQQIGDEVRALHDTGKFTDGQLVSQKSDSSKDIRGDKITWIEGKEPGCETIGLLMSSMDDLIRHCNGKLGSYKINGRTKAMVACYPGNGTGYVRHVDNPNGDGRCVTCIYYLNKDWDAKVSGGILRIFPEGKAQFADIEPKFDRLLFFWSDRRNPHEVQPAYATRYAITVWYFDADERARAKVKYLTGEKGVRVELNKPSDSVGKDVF

The compound `COc1cccc(-c2cccc3c2C(=O)C(C(=O)NCC(=O)O)=C3O)c1` [Example 17, 2-(3-hydroxy-7-(3-methoxyphenyl)-1-oxo-1H-indene-2-carboxamido)acetic acid] had an IC50 of 0.003 µM.

With `O=C(O)CNC(=O)C1=C(O)c2c(I)cccc2C1=O` [Example 1, 2-(3-hydroxy-4-iodo-1-oxo-1H-indene-2-carboxamido)acetic acid], the concentration for half-maximal inhibition (IC50) amounted to 0.0225 µM. For `O=C(O)CNC(=O)C1=C(O)c2c(Cl)cccc2C1=O` [Example 4, 2-(4-chloro-3-hydroxy-1-oxo-1H-indene-2-carboxamido)acetic acid], the IC50 came to 0.0095 µM. Take `O=C(O)CNC(=O)C1=C(O)c2ccc(-c3ccccc3Cl)cc2C1=O` [Example 18, 2-(6-(2-chlorophenyl)-3-hydroxy-1-oxo-1H-indene-2-carboxamido)acetic acid]: half-maximal inhibition (IC50) required 0.0036 µM.

In the case of `O=C(O)CNC(=O)C1=C(O)c2c(cccc2-c2ccc(Cl)cc2)C1=O` [Example 13, 2-(4-(4-chlorophenyl)-3-hydroxy-1-oxo-1H-indene-2-carboxamido)acetic acid], the midpoint of inhibition, the IC50, lay at 0.0038 µM. Compound `O=C(O)CNC(=O)C1=C(O)c2c(cccc2-c2cccc(Cl)c2)C1=O` [Example 14, 2-(4-(3-chlorophenyl)-3-hydroxy-1-oxo-1H-indene-2-carboxamido)acetic acid] had an IC50 of 0.003 µM.

For the compound `O=C(O)CNC(=O)C1=C(O)c2c(Cl)ccc(Cl)c2C1=O` [Example 8, 2-(4,7-dichloro-3-hydroxy-1-oxo-1H-indene-2-carboxamido)acetic acid], the IC50 was 0.0472 µM.

`O=C(O)CNC(=O)C1=C(O)c2c(cccc2-c2ccccc2Cl)C1=O` [Example 15, 2-(4-(2-chlorophenyl)-3-hydroxy-1-oxo-1H-indene-2-carboxamido)acetic acid] had an IC50 of 0.0085 µM.

`O=C(O)CNC(=O)C1=C(O)c2cc(Br)ccc2C1=O` [Example 2, 2-(5-bromo-3-hydroxy-1-oxo-1H-indene-2-carboxamido)acetic acid]: the half-inhibitory concentration (IC50) stood at 0.0206 µM. In turn, `O=C(O)CNC(=O)C1=C(O)c2ccc(-c3ccccc3)cc2C1=O` [Example 10, 2-(3-hydroxy-1-oxo-6-phenyl-1H-indene-2-carboxamido)acetic acid] registered an IC50 of 0.0116 µM. The same measure for `COc1ccc(-c2ccc3c(c2)C(O)=C(C(=O)NCC(=O)O)C3=O)cc1` [Example 12, 2-(3-hydroxy-5-(4-methoxyphenyl)-1-oxo-1H-indene-2-carboxamido)acetic acid]: 0.022 µM; for `COc1ccccc1-c1cccc2c1C(=O)C(C(=O)NCC(=O)O)=C2O` [Example 16, 2-(3-hydroxy-7-(2-methoxyphenyl)-1-oxo-1H-indene-2-carboxamido)acetic acid]: 0.0221 µM. For `COc1ccc(-c2cccc3c2C(O)=C(C(=O)NCC(=O)O)C3=O)cc1` [Example 11, 2-(3-hydroxy-4-(4-methoxyphenyl)-1-oxo-1H-indene-2-carboxamido)acetic acid], inhibition was half-maximal at 0.0036 µM (IC50). `O=C(O)CNC(=O)C1=C(O)c2cc(C(F)(F)F)ccc2C1=O` [Example 3, 2-(3-hydroxy-1-oxo-5-(trifluoromethyl)-1H-indene-2-carboxamido)acetic acid] returned an IC50 of 0.013 µM. As for `O=C(O)CNC(=O)C1=C(O)c2c(cccc2-c2ccccc2)C1=O` [Example 9, 2-(3-hydroxy-1-oxo-7-phenyl-1H-indene-2-carboxamido)acetic acid], the figure is 0.0028 µM; as for `O=C(O)CNC(=O)C1=C(O)c2c(F)cccc2C1=O` [Example 7], 0.0255 µM; as for `COc1cccc(-c2ccc3c(c2)C(=O)C(C(=O)NCC(=O)O)=C3O)c1` [Example 19, 2-(3-hydroxy-6-(3-methoxyphenyl)-1-oxo-1H-indene-2-carboxamido)acetic acid], 0.0055 µM. `O=C(O)CNC(=O)C1=C(O)c2cc(F)ccc2C1=O` [Example 6, 2-(6-fluoro-3-hydroxy-1-oxo-1H-indene-2-carboxamido)acetic acid] yielded an IC50 of 0.0501 µM.
